For data set [1], the system named is M. arupense. The experiment in a line: MIC (CLSI broth dilution), slow-growing NTM isolates. The format is cell-based. The following applies: isolate 11, Other. Background: Dilution methods test growth across graded concentrations, often in twofold steps.
The test system of data set [2] is M. intracellulare. The description is as above. Type of data set: cell-based.
For data set [3], the system named is slow-growing NTM isolates. The experiment in a line: MIC (CLSI broth dilution), all slow-growing NTM isolates. The format is cell-based, nontuberculous mycobacteria. As to conditions: all slow-growing NTM isolates.
Data set [4] concerns M. simiae. Nature of the data set: MIC (CLSI broth dilution), slow-growing NTM isolates. Type of data set: cell-based.
In data set [5] the test system is M. abscessus. As to conditions: strains of M. abscessus; Wallace et al.; cited from earlier work.
Data set [6] can be described thus: Intra-pulmonary steady-state concentrations (plasma, ELF, alveolar cells) after multiple IV doses in healthy adult subjects. Type of data set: in vivo, human. The following applies: model-computed. Here is the method:
The remaining 20 subjects received tigecycline as 1 intravenous dose of 100 mg administered as a 30 minute infusion at t=0, followed by 6 intravenous doses of 50 mg administered as 30 minute infusions at t=12, 24, 36, 48, 60, and 72 hours. A study completion visit was conducted on the day following the final test article dose. There was a final follow-up assessment 7 to 14 days following the subject's last dose of test article which may be completed by telephone contact or other interactive technology unless an examination was needed to evaluate adverse events or abnormalities noted at the study completion visit.
Plasma PK samples were collected pre-dose and at 0.5, 1, 1.5, 2, 3, 4, 6, 8, 12 and 24 hours post-dose on day 4. […] One BAL sample was collected from each subject on day 4. Subjects were randomized to one of the following collection times: 0.5, 1, 2, 4, 8, 12 or 24 hours post-dose.

Data set [7] deals with M. abscessus subsp. abscessus CIP 104536. Nature of the data set: Time-kill kinetics assay. Type of data set: cell-based. As for the experimental part: Briefly, M. abscessus cultures were exposed to antimicrobial drugs at 4-fold increasing concentrations for 7 days at 37° C. under shaking conditions at 96 rpm. […] The drug concentrations ranged from 0.063 to 256 mg/L for both compounds. […] At day 1, 3 and 7 during drug exposure, samples were collected, centrifuged at 14000 xg to avoid anti-NTM drug carry over, serially diluted (10-fold, 10^0-10^7) and subcultured onto solid medium. […] The lower limit of detection was 5 cfu/mL (log 0.7). All experiments were performed in duplicate. Time-kill curves, as well as concentration-effect curves were generated.

Data set [8] has the same test system. The experiment in a line: MIC according to CLSI guidelines. The following applies: Mycobacteroides abscessus, CIP104536, read-out: Minimal Inhibitory Concentration (MIC).
Description: Vials with M. abscessus suspensions were stored at −80° C. Cultures on solid medium were grown on Mueller Hinton II agar (BD), supplemented with 10% OADC and 0.5% glycerol for 10 days at 37° C. with 5% CO2.
For data set [9] the following is noted: daily; previously shown (Bax et al.); cited from earlier work.
Data set [10] can be described thus: MIC by broth microdilution in CAMHB, clinical isolates. The format is cell-based, Mycobacterium chelonae.

≈ marks a conversion by molar mass, not a printed value. A value given as a limit tells only on which side of the number the result lay.

With `NCC[C@H](O)C(=O)N[C@@H]1C[C@H](N)[C@@H](O[C@H]2O[C@H](CN)[C@@H](O)[C@H](O)[C@H]2O)[C@H](O)[C@H]1O[C@H]1O[C@H](CO)[C@@H](O)[C@H](N)[C@H]1O` [Amikacin, amikacin], the MIC in [1] amounted to 8 µg/mL (≈ 13.7 µM); in data set [2] (isolate 6, MAC), 8 µg/mL (≈ 13.7 µM); in data set [2] (isolate 7, MAC), 8 µg/mL (≈ 13.7 µM); in data set [2] (isolate 8, MAC) it was 16 µg/mL (≈ 27.3 µM); in [2] (isolate 9, MAC), 16 µg/mL (≈ 27.3 µM); in data set [2] (isolate 10, MAC) it was 16 µg/mL (≈ 27.3 µM). Moreover, the MIC is 32 µg/mL (≈ 54.6 µM) in [4] (isolate 13, Other); 16 µg/mL (≈ 27.3 µM) in data set [4] (isolate 14, Other); 16 µg/mL (≈ 27.3 µM) in [4] (isolate 15, Other). Further, in [3], the MIC50 (commonly the lowest concentration that inhibits either 50% of growth or 50% of the strains tested, depending on the study) was 16 µg/mL (≈ 27.3 µM). In addition, in data set [3], the MIC90 (in general, the lowest concentration that inhibits either 90% of growth or 90% of the strains tested, depending on the study) is 32 µg/mL (≈ 54.6 µM).
On to `C[C@H]1c2cccc(O)c2C(=O)C2=C(O)[C@]3(O)C(=O)C(C(N)=O)=C(O)[C@@H](N(C)C)[C@@H]3[C@@H](O)[C@@H]21` [Doxycycline, doxycycline], for which the MIC was 16 µg/mL (≈ 36 µM) in data set [1]; more than 16 µg/mL in data set [4] (isolate 13, Other); more than 16 µg/mL in [4] (isolate 14, Other); more than 16 µg/mL in data set [4] (isolate 15, Other). The “in vitro activity (in words)” value in data set [5] is on record as “very low activity”.
Consider `CN(C)c1cc(NC(=O)CNC(C)(C)C)c(O)c2c1C[C@H]1C[C@H]3[C@H](N(C)C)C(O)=C(C(N)=O)C(=O)[C@@]3(O)C(O)=C1C2=O` [Tigecycline, tigecycline], for which the AUC in [6] (human, in vivo, compartment models, read-out: Total-drug AUC72-96, ELF (Median)) was determined as 2590 ng·h/mL. In [6] (human, in vivo, read-out: Penetration Ratio: total-drug ELF AUC72-84 to free-drug plasma AUC72-84 (Median)), the Kp came to 1.87. In data set [6] (compartment models), the “Free-drug AUC72-96, Plasma (Median)” value worked out at 1380 ng·h/mL. Moreover, the “concentration for 1 log mycobacterial killing” value in [7] (after 7 days of exposure) was 2.7 mg/L. The “concentration for 2 log mycobacterial killing” value in data set [7] (after 7 days of exposure) is recorded as 3.4 mg/L. The “concentration for stasis (concentration-effect curve)” value in data set [7] (after 7 days of exposure) was 2.2 mg/L. The “concentrations showing mycobacterial killing” value in data set [7] (time-kill, up to 7 days exposure) was not below 4 mg/L. Besides, the MIC is 4 µg/mL (≈ 6.83 µM) in data set [8]; 0.125 µg/mL (≈ 0.213 µM) in [10] (isolate No. 1, MC 7323); 0.03 µg/mL (≈ 0.0512 µM) in data set [10] (isolate No. 2, MC 7534); 0.03 µg/mL (≈ 0.0512 µM) in data set [10] (isolate No. 3, MC 7368); 0.06 µg/mL (≈ 0.102 µM) in [10] (isolate No. 4, MC 7514); 0.06 µg/mL (≈ 0.102 µM) in [10] (isolate No. 5, MC 7584). The MIC in [10] (isolate No. 6, MC 7192) is 0.03 µg/mL (≈ 0.0512 µM); in data set [10] (isolate No. 7, MC 7466), 0.03 µg/mL (≈ 0.0512 µM); in data set [10] (isolate No. 8, MC 7533), 0.125 µg/mL (≈ 0.213 µM); in data set [10] (isolate No. 9, MC 7579) it was 0.03 µg/mL (≈ 0.0512 µM); in data set [10] (isolate No. 10, MC 7614), 0.125 µg/mL (≈ 0.213 µM); in [10] (isolate No. 11, MC 7414) it was 0.06 µg/mL (≈ 0.102 µM). Also, the MIC in [10] (isolate No. 12, MC 7313) turned out to be 0.25 µg/mL (≈ 0.427 µM); in [10] (isolate No. 13, MC 7281), 0.5 µg/mL (≈ 0.854 µM); in [10] (isolate No. 14, MC 7328), 0.015 µg/mL (≈ 0.0256 µM); in data set [10] (isolate No. 15, MC 7294), 0.125 µg/mL (≈ 0.213 µM); in data set [10] (isolate No. 16, MC 14-S-03) it was 0.5 µg/mL (≈ 0.854 µM); in data set [10] (isolate No. 17, MC 14-S-04), 0.06 µg/mL (≈ 0.102 µM). For the same compound, the MIC in data set [10] (isolate No. 18, MC 14-S-05) was determined as 0.125 µg/mL (≈ 0.213 µM); in data set [10] (isolate No. 19, MC 14-S-06) it was 0.03 µg/mL (≈ 0.0512 µM); in [10] (isolate No. 20, MC 14-S-07), 0.06 µg/mL (≈ 0.102 µM); in [10] (isolate No. 21, MC 35757), 0.125 µg/mL (≈ 0.213 µM); in data set [10] (isolate No. 22, MC 7302), 0.25 µg/mL (≈ 0.427 µM). Also, the “in vitro activity (in words)” value in data set [5] is “good activity”. Moreover, in data set [9], the decline in concentration is listed as 80%. For the same compound, in data set [10], the MIC90 came to 0.125 µg/mL (≈ 0.213 µM).
